In ChEMBL document CHEMBL1138582, “5-Aminopyrimidin-2-ylnitriles as cathepsin K inhibitors” (Bioorg Med Chem Lett, 2009):

Legend:
Cathepsin K = target: T1, Cathepsin K (Homo sapiens, UniProt P43235); assay: Inhibition of cathepsin K
T1 sequence (P43235 whole entry): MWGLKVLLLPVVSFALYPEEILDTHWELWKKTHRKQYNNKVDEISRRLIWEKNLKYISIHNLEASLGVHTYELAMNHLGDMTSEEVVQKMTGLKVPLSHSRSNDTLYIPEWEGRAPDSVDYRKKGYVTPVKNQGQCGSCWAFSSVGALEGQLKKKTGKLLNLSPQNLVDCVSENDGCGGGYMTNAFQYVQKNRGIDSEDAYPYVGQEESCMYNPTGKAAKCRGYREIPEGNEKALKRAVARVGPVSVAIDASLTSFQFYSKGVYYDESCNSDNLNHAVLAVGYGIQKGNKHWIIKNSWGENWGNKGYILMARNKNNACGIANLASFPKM

[1] = Electrophilicity, glutathione reactivity assessed as half life; type: physicochemical; parameters: unit not given here
Cathepsin S = Cathepsin S (Homo sapiens, UniProt P25774); assay: Inhibition of cathepsin S
Chain of Cathepsin S (P25774 whole entry): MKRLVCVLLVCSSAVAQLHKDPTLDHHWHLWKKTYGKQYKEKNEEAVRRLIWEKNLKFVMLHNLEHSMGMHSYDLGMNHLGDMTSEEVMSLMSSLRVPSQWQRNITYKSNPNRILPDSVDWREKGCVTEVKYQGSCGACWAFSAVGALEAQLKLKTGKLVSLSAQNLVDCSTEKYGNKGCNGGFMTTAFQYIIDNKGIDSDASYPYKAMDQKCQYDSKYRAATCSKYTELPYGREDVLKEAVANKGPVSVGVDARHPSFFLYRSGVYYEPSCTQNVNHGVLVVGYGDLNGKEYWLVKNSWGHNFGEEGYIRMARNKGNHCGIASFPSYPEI

Procathepsin L = Procathepsin L (Homo sapiens, UniProt P07711); assay: Inhibition of cathepsin L
Chain of Procathepsin L (P07711 whole entry): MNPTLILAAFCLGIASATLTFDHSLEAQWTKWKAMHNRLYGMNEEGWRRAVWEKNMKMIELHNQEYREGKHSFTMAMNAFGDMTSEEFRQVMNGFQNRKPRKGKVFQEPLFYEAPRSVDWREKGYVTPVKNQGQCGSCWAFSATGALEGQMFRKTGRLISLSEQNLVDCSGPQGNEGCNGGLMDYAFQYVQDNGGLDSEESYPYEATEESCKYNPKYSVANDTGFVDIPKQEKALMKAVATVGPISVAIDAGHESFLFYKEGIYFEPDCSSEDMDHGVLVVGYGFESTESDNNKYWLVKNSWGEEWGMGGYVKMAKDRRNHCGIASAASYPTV

Cathepsin B = Cathepsin B (Homo sapiens, UniProt P07858); assay: Inhibition of cathepsin B

Structure (SMILES)	IC50 (Cathepsin K) [nM]	logt1/2 [1]	other results
N#Cc1nc(NC2CCCCC2)c(N)c(N2CCOCC2)n1	23		
N#Cc1nc(N2CCCCC2)c(N)c(N2CCOCC2)n1	22		
CC(=O)N1CCN(c2nc(C#N)nc(NCC(C)C)c2N)CC1	9		
CC(C)CNc1nc(C#N)nc(NCc2nnn[nH]2)c1N	62		
CC(C)Nc1nc(C#N)nc(N2CCOCC2)c1N	560		
N#Cc1nc(N2CCCC2)c(N)c(N2CCOCC2)n1	60		
CN(C)c1nc(C#N)nc(Nc2ccccc2)c1N		3	
CN(C)c1nc(C#N)nc(N(C)C)c1N		3.26	
CNc1nc(C#N)nc(N(C)C)c1[N+](=O)[O-]		< 2.08	
CNc1nc(C#N)nc(N(C)C)c1Br		2.19	
COCCNc1nc(C#N)nc(NCC(C)C)c1N	24		
N#Cc1nc(NC2CCCC2)c(N)c(N2CCOCC2)n1	13		
CC(C)CNc1nc(C#N)nc(N2CCOCC2)c1N	18		IC50 (Cathepsin S): 560 nM; IC50 (Procathepsin L): 2000 nM
N#Cc1nc(NC2CCOC2)c(N)c(N2CCOCC2)n1 (configuration not stated)	340		
CC(C)CNc1nc(C#N)nc(NC2CCS(=O)(=O)C2)c1N (configuration not stated)	14		
CN(C)c1nc(C#N)nc(Oc2ccccc2)c1N		2.98	
CC(C)(C)CNc1nc(C#N)nc(N2CCOCC2)c1N	17		IC50 (Cathepsin S): 910 nM; IC50 (Cathepsin B): > 10000 nM; IC50 (Procathepsin L): > 10000 nM
COc1c(Nc2ccccc2)nc(C#N)nc1N(C)C		2.31	
CNc1nc(C#N)nc(N(C)C)c1N		3.38	
N#Cc1nc(Nc2ccccc2)c(N)c(N2CCOCC2)n1	110		
CCC(C)Nc1nc(C#N)nc(N2CCOCC2)c1N (configuration not stated)	300		
CNc1cc(N(C)C)nc(C#N)n1		2.67	
CC(C)CNc1nc(C#N)nc(N2CCNCC2)c1N	6		IC50 (Cathepsin S): 890 nM; IC50 (Cathepsin B): 6100 nM; IC50 (Procathepsin L): 1400 nM
CN(C)c1nc(C#N)nc(Nc2ccccc2)n1		2.07	
CN(C)c1cc(N(C)C)nc(C#N)n1		2.56	
CNc1c(Nc2ccccc2)nc(C#N)nc1N(C)C		2.91	
N#Cc1nc(NC2CC3CCC2C3)c(N)c(N2CCOCC2)n1 (configuration not stated)	2		
CC(C)CNc1nc(C#N)nc(N2CC(O)C2)c1N	32		
CN(C)c1cc(Nc2ccccc2)nc(C#N)n1		2.12	
